Source: patent US8716279B2, “Pharmaceutical compositions of clonazepam and method of use thereof” (Jazz Pharmaceuticals, Inc., priority 2006, dated 2014)
≈ marks a conversion by molar mass, not a printed value.

Key:
[1] = Drug recovery, degradation and binding to nasal sheep mucosa; type: in vitro ADME
Method: (i) Drug recovery, degradation and binding to nasal sheep mucosa: The effect of drug recovery, degradation and binding to sheep nasal mucosa was determined. Briefly, a known surface area (approx. 1 cm^2) of sheep nasal mucosa was added into a glass vial containing a known concentration (10 μg/mL) of each drug prepared in the receiver fluid (10% ethanol in pH 6 buffer). The content of the vial was allowed to equilibrate at 37° C. over a period of 48 h. At 24 h intervals, a sample was removed and assayed via HPLC. The percentage of drug recovered was calculated using Equation 4: % drug recovered=(drug concentration at t=Y/drug concentration at t=Z)×100 (Equation 4)
where, Y=specific time point at 37° C. (in the presence of nasal sheep mucosa); and Z=specific time point at 37° C. (in the absence of nasal sheep mucosa).
In addition to the stability against heat degradation, the effect of drug binding or degradation in the presence of nasal sheep mucosa was also determined (Table 6).

[2] = Solubility of clonazepam in neat solvents; settings: neat PEG 300
Method: The solubility of clonazepam in a number of neat solvents was determined using standard methods.

[3] = Solubility of clonazepam in glycol ethers at 25° C.
Method: 10 mg of clonazepam was weighed into glass vials used in the Pfeiffer mono-dose spray system (Pfeiffer of America, Princeton, N.J.). Four samples of each of four solvents were prepared as follows. 130-μL of each solvent was pipetted into the vial, which was then stoppered with a black chlorobutyl rubber stopper.
The vials were removed from the chamber, placed inside polyethylene centrifuge vials, and centrifuged for 2 minutes at 5000 rpm. 10 μL of liquid was then sampled from each vial, accurately weighed, and diluted with 1 mL of acetonitrile. The drug concentration was analyzed by UV using an Agilent HPLC system with no column, 10 μL injection volume, acetonitrile mobile phase, 0.3 mL/min and UV detection at 350 nm.

[4] = Solubilities of clonazepam in solvent/water solutions (glycol ether + pH6.8 buffered water, 25° C.); type: physicochemical; settings: Di (ethyleneglycol) diethyl ether, 20% solvent / 80% pH6.8 buffered water
Method: The vials were stored at 25° C. for approximately 1 day. Prior to sampling, the vials were centrifuged at 5000 rpm for 2 minutes at 23° C. The results are shown below; neat solvent solubilities from Example 11 are included for reference. Increased water content decreases solubility substantially.

[5] = Human pharmacokinetic, safety and tolerability study (oral, intravenous, intranasal cross-over)
Method: The human pharmacokinetics, safety, and tolerability of the clonazepam compositions of the present invention formulated for intranasal delivery for therapeutic applications are evaluated using standard clinical procedures. Clonazepam compositions formulated for intranasal delivery are provided, for example, for application by the participants to intranasal mucosa.
A primary objective of initial studies in humans is to determine and compare pharmacokinetic profiles of three dosage forms of clonazepam: oral, i.v., and intranasal, following single administration. An example of such a study in humans is a cross-over study performed in 12 healthy male volunteers. Plasma and urine level of clonazepam and 7-amino-clonazepam are determined, for example, using HPLC and UV detection. […] Further the initial studies in humans are used to determine local tolerability of intranasal formulation using questionnaire and the Visual Analog Scale (VAS). VAS is a validated instrument that has been used in numerous studies to quantify subjective opening of the nasal passages. In addition, cognitive, sleepiness and mood effects are evaluated using questionnaires and scales (see, e.g., Example 10 below). Further, attention and vigilance may be evaluated using, for example, LEEDS Psychomotor Multiple Choice Reaction Time (MCRT) testing.
A human pharmacokinetic study was carried out as described in Example 8.
15 young, healthy male volunteers received a single dose of 1 mg clonazepam by oral, intravenous and intranasal routes in a three-period cross-over design.

[6] = oral; cited from earlier work
[7] = Solubility of clonazepam in binary mixtures of matrices; settings: binary mixture with glycofurol, inferred from FIG. 2
Method: Further, the solubility of clonazepam in binary mixtures of Transcutol® (TC), triacetin (TA), glycofurol (GF) and propylene glycol (PG) was evaluated. Solubility limits of clonazepam were determined for the following formulations:
Excess drug (50 mg) was capped with about 500 μL of the solvent matrix in a 1.5 mL microfuge tube and the solution was mixed on a vortex shaker for several minutes. Thereafter, the solution was placed in an ultrasonic bath at 25° C. for 45 minutes. The temperature was regulated with a thermometer and controlled by adding ice into the bath. After 15 minutes of standing, the solutions were centrifuged at 3,000×g for 30 minutes. Solutions were then stored for 16 hours at 25° C. in an ICH cabinet and protected from light.

O=C1CN=C(c2ccccc2Cl)c2cc([N+](=O)[O-])ccc2N1 [Clonazepam, 5-(2-chlorophenyl)-1,3-dihydro-7-nitro-2H-1,4-benzodiazepin-2-one]
degree of binding or degradation in the presence of nasal sheep mucosa ([1]; 37° C.): < 10%
drug recovered in the presence of nasal sheep mucosa ([1]; 37° C. over 48 h): greater than 95%
Solubility [2]: 37.0 mg/mL (≈ 117 mM)
Solubilities (mg/mL) of Clonazepam in Solvent/Water Solutions ([3]; 1,2-dimethyxoethane, 100% solvent / 0% water, 25° C. (neat solvent value from Example 11, included for reference)): 39.3 mg/mL
Solubility ([3]; in 1,2-dimethyxoethane, 25 C.): 39.3 mg/mL (≈ 124 mM)
Solubilities (mg/mL) of Clonazepam in Solvent/Water Solutions [4]: 0.31 mg/mL
Cmax of the intranasal route as % of that of the intravenous route ([5]; 1 mg): 17%
Cmax of the intranasal route as % of that of the oral route ([5]; 1 mg): 93%
median Tmax ([5]; 1 mg single dose, intravenous, 15 volunteers): 6 min
mean Cmax (mean ±SD) ([5]; 1 mg, intranasal route): 7.12 ± 3.81 ng/mL
mean Cmax (mean ±SD) ([5]; 1 mg, intravenous route): 42.5±10.8
mean Cmax (mean ±SD) ([5]; 1 mg, oral route): 7.64 ± 1.74 ng/mL
subjects reporting somnolence ([5]; after intranasal dosing, 10 of 15): approximately 67%
subjects reporting nasal discomfort ([5]; after intranasal dosing, 12 of 15): approximately 80%
subjects reporting sedation ([5]; after intravenous dosing): 3/15
subjects reporting somnolence ([5]; after intravenous dosing): 11/15
subjects reporting somnolence or sedation ([5]; after intravenous dosing): Approximately 93%
subjects reporting somnolence ([5]; after oral dosing, 13 of 15): approximately 87%
time of maximum blood concentrations [6]: one to two
solubility in the 50:50 mixture [7]: about 36.4 mg/mL
